In US10167262B2, “Herbicidal substituted 3-arylpyrazoles” (FMC CORPORATION, priority 2014, dated 2019):

Tests used:
Format in all cases: in vivo
[1] = system: sedge, umbrella (small-flower umbrella sedge, Cyperus difformis); experiment: Test B flooded paddy test, plant response rating 0-100; conditions: Flood, 250 g ai/ha; scale 0 to 100 (0 no effect, 100 complete control); 13 to 15 days
Method in brief: (§1)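 Ratings were visual and made relative to untreated controls after 13 to 15 greenhouse days.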

[2] = system: barnyardgrass (Echinochloa crus-galli); experiment: as above; conditions: Flood, 250 g ai/ha; scale 0 to 100 (0 no effect, 100 complete control); 13 to 15 days
Method in brief: as §1

[3] = system: ducksalad (Heteranthera limosa); experiment: as above; conditions: Flood, 250 g ai/ha; scale 0 to 100 (0 no effect, 100 complete control); 13 to 15 days
Method in brief: as §1

rice (Oryza sativa) = experiment: as above; conditions: Flood, 250 g ai/ha; scale 0 to 100 (0 no effect, 100 complete control); 13 to 15 days
Method in brief: as §1

[4] = system: waterhemp_RES2, (ALS & HPPD resistant common waterhemp, Amaranthus rudis); experiment: Test E postemergence greenhouse test, plant response rating 0-100; conditions: scale 0 to 100
Method in brief: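 Resistant waterhemp biotypes grown in peat/vermiculite medium and treated postemergence at 2–18 cm height (1- to 4-leaf stage). Kept in greenhouse 14 to 21 days, then visually rated against untreated controls on a 0–100 scale (0 no effect, 100 complete control).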

[5] = system: downy bromegrass (Bromus tectorum); experiment: Test C postemergence greenhouse test, plant response rating 0-100; conditions: for Plant response rating, Bromegrass, Downy: scale 0 to 100
Method in brief: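 Visual rating vs. controls, 0 (no effect) to 100 (complete control), 13–15 d after postemergence treatment. Potted plants, 1- to 4-leaf stage (2–18 cm), greenhouse-held.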

[6] = system: palmer pigweed (Amaranthus palmeri); experiment: Test E pre-/postemergence greenhouse test, plant response rating 0-100; conditions: scale 0 to 100; for Pigweed, Palmer plant response rating: Preemergence
Method in brief: (§2)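 Seeds sown in silt loam were treated preemergence, and seedlings in peat-based potting medium were treated postemergence at the 1- to 4-leaf stage (2-18 cm tall). Test chemicals were formulated in a non-phytotoxic solvent mixture with surfactant. After 14-21 days in the greenhouse, injury was rated visually against untreated controls (0 = no effect, 100 = complete control).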

[7] = system: arrowleaf sida (Sida rhombifolia); experiment: as above; conditions: for Arrowleaf Sida plant response rating: Preemergence
Method in brief: as §2

[8] = system: waterhemp (common waterhemp, Amaranthus rudis); experiment: Test C pre-/postemergence greenhouse test, plant response rating 0-100; conditions: Preemergence
Method in brief: (§3)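 Pre- and postemergence greenhouse test: seeds sown in loam/sand and treated preemergence, or plants at 2–18 cm (1- to 4-leaf stage) in peat-based medium sprayed postemergence, with compounds in non-phytotoxic solvent plus surfactant. Visual rating versus untreated controls after 13–15 days, 0 (no effect) to 100 (complete control).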

[9] = system: oilseed rape (Brassica napus); experiment: as above; conditions: Preemergence
Method in brief: as §3

[10] = system: barnyardgrass (Echinochloa crus-galli); experiment: as above; conditions: Preemergence
Method in brief: as §3

SMILES: C#CCn1cc(C(=O)c2ccccc2)c(-c2cc(Cl)cc(Cl)c2)n1 [Compound 39, [3-(3,5-dichlorophenyl)-1-(2-propyn-1-yl)-1H-pyrazol-4-yl]phenylmethanone]
- Plant response rating, Sedge, Umbrella [1]: 0
- Plant response rating, Barnyardgrass [2]: 0
- Plant response rating, Ducksalad [3]: 0
- Plant response rating, Rice (rice (Oryza sativa)): 0
- Plant response rating, Waterhemp_RES2 ([4]; 31 g ai/ha): 70
- Plant response rating, Waterhemp_RES2 ([4]; 62 g ai/ha): 75
- Plant response rating, Waterhemp_RES2 ([4]; 125 g ai/ha): 85
- Plant response rating, Waterhemp_RES2 ([4]; 250 g ai/ha): 90
- Plant response rating, Waterhemp_RES2 ([4]; 500 g ai/ha): 90
- Plant response rating (0 to 100), Bromegrass, Downy ([5]; 62 g ai/ha): 0
- Plant response rating (0 to 100), Bromegrass, Downy ([5]; 125 g ai/ha): 0
- Plant response rating, Bromegrass, Downy ([5]; 250 g ai/ha): 0
- Plant response rating, Bromegrass, Downy ([5]; 500 g ai/ha): 5
- pest or weed control at 31 g/ha ([6]; Amaranthus palmeri, post-emergence, Postemergence, 31 g ai/ha): 70%
- pest or weed control at 62 g/ha ([6]; Amaranthus palmeri, post-emergence, Postemergence, 62 g ai/ha): 80%
- pest or weed control at 125 g/ha ([6]; Amaranthus palmeri, post-emergence, Postemergence, 125 g ai/ha): 80%
- pest or weed control at 250 g/ha ([6]; Amaranthus palmeri, post-emergence, Postemergence, 250 g ai/ha): 85%
- pest or weed control at 500 g/ha ([6]; Amaranthus palmeri, post-emergence, Postemergence, 500 g ai/ha): 98%
- Pigweed, Palmer plant response rating ([6]; 62 g ai/ha): 20
- Pigweed, Palmer plant response rating ([6]; 125 g ai/ha): 50
- Pigweed, Palmer plant response rating ([6]; 250 g ai/ha): 90
- Pigweed, Palmer plant response rating ([6]; 500 g ai/ha): 85
- Arrowleaf Sida plant response rating ([7]; 62 g ai/ha, scale 0 to 100): 0
- Arrowleaf Sida plant response rating ([7]; 125 g ai/ha, scale 0 to 100): 90
- Arrowleaf Sida plant response rating ([7]; 250 g ai/ha, scale 0 to 100): 95
- Arrowleaf Sida plant response rating ([7]; 500 g ai/ha, scale 0 to 100): 95
- pest or weed control at 31 g/ha ([7]; Sida rhombifolia, post-emergence, Postemergence, 31 g ai/ha, scale 0 to 100): 75%
- pest or weed control at 62 g/ha ([7]; Sida rhombifolia, post-emergence, Postemergence, 62 g ai/ha, scale 0 to 100): 80%
- pest or weed control at 125 g/ha ([7]; Sida rhombifolia, post-emergence, Postemergence, 125 g ai/ha, scale 0 to 100): 85%
- pest or weed control at 250 g/ha ([7]; Sida rhombifolia, post-emergence, Postemergence, 250 g ai/ha, scale 0 to 100): 90%
- pest or weed control at 500 g/ha ([7]; Sida rhombifolia, post-emergence, Postemergence, 500 g ai/ha, scale 0 to 100 (0 no effect, 100 complete control)): 90%
- Plant response rating, Waterhemp ([8]; 62 g ai/ha): 75
- Plant response rating, Waterhemp ([8]; 125 g ai/ha): 100
- Plant response rating, Waterhemp ([8]; 250 g ai/ha): 100
- Plant response rating, Waterhemp ([8]; 500 g ai/ha): 100
- Plant response rating, Oilseed Rape ([9]; 62 g ai/ha): 0
- Plant response rating, Oilseed Rape ([9]; 125 g ai/ha): 30
- Plant response rating, Oilseed Rape ([9]; 250 g ai/ha): 50
- Plant response rating, Oilseed Rape ([9]; 500 g ai/ha): 80
- Plant response rating, Barnyardgrass ([10]; 62 g ai/ha): 0
- Plant response rating, Barnyardgrass ([10]; 125 g ai/ha): 0
- Plant response rating, Barnyardgrass ([10]; 250 g ai/ha): 0
- Plant response rating, Barnyardgrass ([10]; 500 g ai/ha): 0
